Columns and labels:
PLK1 [1] = target: T1, PLK1 (Homo sapiens, UniProt P53350); test: In vitro PLK1 ELISA assay (biochemical); design: purchased Cell Signalling 7728
Procedure: (§1) Inhibition of PLK1 was measured by quantifying phosphorylation of PLK1 substrates using chemiluminescent and fluorogenic probes. The protocols for these assays are provided below.
In Vitro PLK1 ELISA Assay
1. Preparation of Assay Plates.
Costar 96-well black or white solid flat high binding plates (Fisher Scientific, Catalog No. 07-200-591) were coated with Neutravidin (Pierce, Catalog No. 31000) using the following protocol. A 0.01 mg/mL solution of Neutravidin in 1× Phosphate Buffered Saline (“PBS”, Cellgro/Mediatech, Catalog No. 21-040-CV) was added to each well (100 μL/well) and was incubated for 18-24 hours at 4° C. The plates were then washed with 1× Phosphate Buffer Saline—Tween (“PBST”, Calbiochem, Catalog No. 524653) buffer using a plate washer. The plates were treated with bovine serum albumin (“BSA”, Sigma, Catalog No. A7906) to block non-specific binding sites, by adding a 2% BSA solution in 1×PBST buffer to each well (100 μL/well) and incubating the plates for 1 hour at room temperature. The plates were then washed with 1×PBST buffer using a plate washer.
2. PLK1-Catalyzed Phosphorylation Reaction
An aqueous buffer solution A having the following composition was prepared:
20 mM HEPES (Cellgro/Mediatech, Catalog No. 25-060Ci), pH 7.2;
5 mM MgCl2 (Sigma, Catalog No. M2393);
2 mM MnCl2.4H2O (EM Biosciences, Catalog No. MX0185-2);
1 mM Dithiothreitol (“DTT”, Fluka, Catalog No. B4184).
Next, the substrate solution B was prepared by adding 2.6 μL of 10 mM ATP (Sigma, Catalog No. A7699) and 6.4 μL of the 1 mM PLK1 substrate, CHK2-derived peptide Biotin-SSLETVSTQELYSIP (custom synthesized at Anaspec) SEQ ID: No. 1, to 4691 μL of the buffer solution A. The concentration of the ATP in solution B is 5.44 μM (1.36×); the concentration of the PLK1 substrate in solution B is 1.36 μM (1.36×).
Compound solutions C of varying concentrations for each compound were prepared by dissolving each compound in dimethylsulfoxide (DMSO, Sigma, Catalog No. D2650) to varying concentrations, followed by adding 2 μL of each solution to 38 μL of the buffer solution A, thereby forming 10× compound solutions in 5% DMSO.
A PLK1 solution D was prepared by adding 8.4 μL of 100 μg/mL PLK1 (Cell Signalling, Catalog No. 7728) to 1392 μL of the buffer solution A, thereby forming 0.6 μg/mL (6×) PLK1 solution.
The aqueous 1.36× substrate solution B was added to each well (44 μL/well) resulting in binding of the substrate to the plate via biotin/neutravidin interaction. Then 10× compound solutions C for each tested compound at each tested concentration were added to each well (6 μL/well). Next, 6×PLK1 solution D was added to each well (10 μL/well).
The final concentrations of tested compounds in each well were 10 μM, 3.3 μM, 1.1 μM, 0.36 μM, 0.12 μM, 0.04 μM, 0.014 μM, and 0.005 μM.
The obtained reaction mixtures were incubated in the wells for 45 minutes at room temperature, allowing PLK1-catalyzed phosphorylation of the substrate to proceed. The plates were then washed with 1×PBST solution using a plate washer, such that the bound phosphorylated or unphosphorylated substrate remains attached to the wells upon washing.
The washed plates were developed by treating the plates with a primary antibody that is specific for the phosphorylated substrate, followed by treatment with a secondary antibody that is specific for the primary antibody, and that is capable of catalyzing a reaction that results in a chemiluminescent readout. The chemiluminescent readout was used to quantify the substrate phosphorylation, and, consequently, to determine IC50 values for PLK1 inhibition, and was measured using a luminometer (Perkin Elmer/Wallac plate reader). The plate development protocol is described below.
A mixed antibody solution E was prepared by adding 1 μL of the primary antibody, rabbit p-CHK2(T68) (Rockland, Catalog No. 401280), and 1 μL of the secondary antibody, HRP-goat anti-rabbit IgG (Jackson Immunoresearch Catalog No. 111-035-003) to 10000 μL of 0.1% BSA in 1×PBST buffer. […]

PLK1 [2] = target: T1, PLK1; test: Cellular PLK1 assay in K562 cells overexpressing CDC25C; format: cell-based; design: endogenous in cells; host or cells: K562 (human chronic myelogenous leukemia) overexpressing CDC25C, nocodazole-arrested; conditions: nocodazole arrested, cdc25c p-Ser198 readout
Procedure: as §1
1. Culturing of K562 Cells
Human chronic myelogenous leukemia K562 cells (American Tissue Culture Collection) overexpressing CDC25C, were grown in Growth Medium having the following composition: Iscove Dulbecco's Modified Eagle's Medium (“Iscove DMEM”, Mediatech/Cellgro, Cat. #10-013-CV), 10% Fetal Bovine Serum (“FBS”, SAFC Biosciences, Cat. #12106-500M), and 1% penicillin/streptomycin (“pen-strep”, Mediatech/Cellgro, Cat. #30-002-CI). The cells were plated in 96 well round bottom tissue culture plates (Fisher, Costar* Cell Culture plates, Cat. #07-200-95) at 100,000 cells per 50 μL of Growth Medium per well. Nocodazole (Sigma, Cat. # M1404) was added to the growth media to arrest the cells in the G2 or M phase, at 333 nM concentration. The cells were incubated with nocodazole for 18 hours at 37° C. prior to addition of tested compounds.
2. Treatment of Cells with the Tested Compounds
Solutions of tested compounds in DMSO at different concentrations were prepared using serial dilutions. Each compound was tested at 8 concentration points, 10 μM, 3.3 μM, 1.11 μM, 0.37 μM, 0.12 μM, 0.04 μM, 0.014 μM, 0.005 μM, duplicate replicates.
Two controls were performed: “DMSO alone” control in which nocodazole and DMSO were present but no compounds were added, and “nocodazole alone” control, in which only nocodazole was present, but neither DMSO nor compounds were added.
The solutions of compounds were prepared by diluting 10 mM compound 1:1 in DMSO (5 μL 10 mM compound and 5 μL DMSO), followed by 1:3 serial dilutions of compound in DMSO performed by diluting 3 μL of higher concentration compound solution serially into 6 μL DMSO to give 3-fold dilutions. Next, 3 μL of each compound solution at each concentration was transferred to 750 μL of Growth Medium. In “DMSO alone” control 3 μL of DMSO alone was added to 750 μL of Growth Medium.
After the diluted compounds were mixed well in the Growth Medium, 50 μL of each compound solution in DMSO/Growth Medium was transferred to each well of the 96-plate containing cells in 50 μL of Growth Medium/Nocodazole.
The cells and compounds were incubated for 120 minutes at 37° C., in an atmosphere containing 5% CO2.
3. Fixation and Permeabilization of the Cells
After the cells were incubated with compounds, the cells were spun down at 1,000 rpm for 5 minutes at 4° C. and supernatants were removed by flicking the plates. Cells were then washed with 200 μl of ice cold PBS, spun down again and supernatants removed. Cells were then fixed and permeabilized by addition of 100 μL/well of Fixation and Permeabilization Solution (1× buffer provided in BD Biosciences Cytofix/Cytoperm™ Fixation/Permeabilization kit, Cat. #554714) and incubation for 20 minutes at room temperature. The fixative was then removed by centrifugation (5 minutes at 2,000 rpm), and plates were flicked to remove the fixative and washed twice, each time with 200 μL/well BD Perm/Wash buffer (10× concentrate provided in BD Biosciences Cytofix/Cytoperm™ Fixation/Permeabilization kit, Cat. #554714, 1× buffer prepared by dilution in distilled H2O).
Cells were spun down at 1,000 rpm for 5 minutes at 4° C. Supernatants were removed by flicking the plates. A solution of a primary antibody specific for cdc25cp-Ser198 was prepared by diluting Rabbit cdc25c (Ser198) antibody (Cell Signaling, #9529L) 1:50 in a Fluorescence Activated Cell Sorting (“FACS”) Buffer (2% FBS in PBS). The cell pellets were resuspended in 50 μL of the primary antibody solution. 50 μL of FACS buffer was added to unstained controls. Staining was allowed to proceed overnight at room temperature.
The plates were then washed by addition of 200 μL of FACS Buffer to each well, were centrifuged and the supernatant was removed. […]

[3] = ELISA, CHK2-derived peptide substrate, read-out: PLK1 IC50 (μM) biochemical assay
[4] = read-out: IC50 in biochemical in vitro PLK1 ELISA assay (less than 10 μM)

T1 sequence (P53350 whole entry): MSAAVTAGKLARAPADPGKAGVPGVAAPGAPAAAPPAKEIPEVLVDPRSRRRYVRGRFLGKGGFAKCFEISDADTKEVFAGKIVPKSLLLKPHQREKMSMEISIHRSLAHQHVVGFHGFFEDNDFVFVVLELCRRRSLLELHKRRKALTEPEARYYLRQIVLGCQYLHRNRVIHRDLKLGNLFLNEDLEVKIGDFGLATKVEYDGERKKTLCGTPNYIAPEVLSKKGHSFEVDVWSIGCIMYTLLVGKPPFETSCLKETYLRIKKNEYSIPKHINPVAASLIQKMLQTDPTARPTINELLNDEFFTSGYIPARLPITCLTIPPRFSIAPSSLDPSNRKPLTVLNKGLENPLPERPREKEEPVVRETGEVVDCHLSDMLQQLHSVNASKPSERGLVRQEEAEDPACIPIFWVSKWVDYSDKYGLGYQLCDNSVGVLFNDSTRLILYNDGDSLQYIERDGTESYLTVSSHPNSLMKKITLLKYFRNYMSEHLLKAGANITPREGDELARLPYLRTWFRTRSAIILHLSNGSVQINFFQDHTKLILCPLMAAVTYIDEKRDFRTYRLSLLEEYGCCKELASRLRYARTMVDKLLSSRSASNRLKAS

IC50 (PLK1 [1]; [3]) | IC50 (PLK1 [1]; [4]) | IC50 (PLK1 [2]) | IC50 (PLK1 [1]; read-out: IC50 in biochemical ELISA assay (less than 0.01 μM)) | SMILES
0.5 to 5 µM | < 10 µM | 0.5 to 5 µM | – | CCCN1CCOc2ccc(Nc3nc(Nc4ccc(N5CC6CC5CN6S(C)(=O)=O)c(C)c4)ncc3F)nc21 (stereo not drawn) [compound 28, 5-fluoro-N2-(3-methyl-4-(5-(methylsulfonyl)-2,5-diaza-bicyclo[2.2.1]heptan-2-yl)phenyl)-N4-(4-propyl-3,4-dihydro-2H-pyrido[3,2-b][1,4]oxazin-6-yl)pyrimidine-2,4-diamine]
< 0.5 µM | < 10 µM | ≥ 10 µM | – | CN1CCN(c2cc(Nc3ncc(F)c(Nc4ccc5c(n4)NC(=O)CO5)n3)cc(C(F)(F)F)c2)CC1 [compound 29, 6-(5-fluoro-2-(3-(4-methylpiperazin-1-yl)-5-(trifluoromethyl)phenyl-amino)pyrimidin-4-ylamino)-2H-pyrido[3,2-b][1,4]oxazin-3(4H)-one]
< 0.5 µM | < 10 µM | < 0.5 µM | – | CC(C)Oc1ccc(N2CCN(C)CC2)cc1Nc1ncc(F)c(Nc2ccc3c(n2)NC(=O)CO3)n1 [compound 30, 6-(5-fluoro-2-(2-isopropoxy-5-(4-methylpiperazin-1-yl)phenylamino)pyrimidin-4-ylamino)-2H-pyrido[3,2-b][1,4]oxazin-3(4H)-one]
≥ 10 µM | – | 0.5 to 5 µM | – | CCCN1C(=O)COc2ccc(Nc3nc(Nc4ccc(N5CC6CC5CN6S(C)(=O)=O)c(C)c4)ncc3F)nc21 (stereo not drawn) [compound 31, 6-(5-fluoro-2-(3-methyl-4-(5-(methylsulfonyl)-2,5-diazabicyclo[2.2.1]heptan-2-yl)phenylamino)pyrimidin-4-ylamino)-4-propyl-2H-pyrido[3,2-b][1,4]oxazin-3(4H)-one]
0.5 to 5 µM | < 10 µM | 0.5 to 5 µM | – | CCCN1C(=O)COc2ccc(Nc3nc(Nc4ccc(N5CC6CC5CN6S(C)(=O)=O)c(C)c4)ncc3C)nc21 (stereo not drawn) [compound 32, 6-(5-methyl-2-(3-methyl-4-(5-(methylsulfonyl)-2,5-diazabicyclo[2.2.1]heptan-2-yl)phenylamino)pyrimidin-4-ylamino)-4-propyl-2H-pyrido[3,2-b][1,4]oxazin-3(4H)-one]
< 0.5 µM | < 10 µM | 0.5 to 5 µM | – | CCCN1CCOc2ccc(Nc3nc(Nc4ccc(N5CC6CC5CN6S(C)(=O)=O)c(C)c4)ncc3C)nc21 (stereo not drawn) [compound 33, 5-methyl-N2-(3-methyl-4-(5-(methylsulfonyl)-2,5-diazabicyclo[2.2.1]heptan-2-yl)phenyl)-N4-(4-propyl-3,4-dihydro-2H-pyrido[3,2-b][1,4]oxazin-6-yl)pyrimidine-2,4-diamine]
< 0.5 µM | < 10 µM | < 0.5 µM | – | CN1CCN(c2ccc(C3CC3)c(Nc3ncc(F)c(Nc4ccc5c(n4)NCCO5)n3)c2)CC1 [compound 34, N2-(2-cyclopropyl-5-(4-methylpiperazin-1-yl)phenyl)-N4-(3,4-dihydro-2H-pyrido[3,2-b][1,4]oxazin-6-yl)-5-fluoropyrimidine-2,4-diamine]
< 0.5 µM | < 10 µM | 0.5 to 5 µM | – | CCCN1C(=O)COc2ccc(Nc3nc(Nc4ccc(N5CC6CC5CN6C(C)=O)c(C)c4)ncc3F)nc21 (stereo not drawn) [compound 35, 6-(2-(4-(5-acetyl-2,5-diazabicyclo[2.2.1]heptan-2-yl)-3-methylphenylamino)-5-fluoropyrimidin-4-ylamino)-4-propyl-2H-pyrido[3,2-b][1,4]oxazin-3(4H)-one]
< 0.5 µM | < 10 µM | 0.5 to 5 µM | < 0.01 µM | Cc1ccc(Nc2ncc(F)c(Nc3ccc4c(n3)NCCO4)n2)cc1N1CC2CC1CN2C (stereo not drawn) [compound 36, N4-(3,4-dihydro-2H-pyrido[3,2-b][1,4]oxazin-6-yl)-5-fluoro-N2-(4-methyl-3-(5-methyl-2,5-diazabicyclo[2.2.1]heptan-2-yl)phenyl)pyrimidine-2,4-diamine]
0.5 to 5 µM | < 10 µM | 0.5 to 5 µM | – | CCCN1CCOc2ccc(Nc3nc(Nc4ccc(N5CC6CC5CN6C(C)=O)c(C)c4)ncc3F)nc21 (stereo not drawn) [compound 37, 1-(5-(4-(5-fluoro-4-(4-propyl-3,4-dihydro-2H-pyrido[3,2-b][1,4]oxazin-6-ylamino)pyrimidin-2-ylamino)-2-methyl-phenyl)-2,5-diaza-bicyclo[2.2.1]heptan-2-yl)ethanone]

From patent US9040527B2, “Pyrimidinediamine kinase inhibitors” (Rigel Pharmaceuticals, Inc., priority 2008, dated 2015)
